Data as given in paper PMC8719060, “Characterization of a Novel Chromosome-Encoded AmpC β-Lactamase Gene, blaPRC–1, in an Isolate of a Newly Classified Pseudomonas Species, Pseudomonas wenzhouensis A20, From Animal Farm Sewage” (Frontiers in Microbiology, 2021).

Biological target: PRC-1 (Pseudomonas wenzhouensis, UniProt Z9ZEF5EQX5)
Experiment: nitrocefin hydrolysis inhibition, spectrophotometry
Assay type: biochemical
Conditions: 100 μM nitrocefin, 5 min preincubation, 37°C; covalent

Chain of PRC-1 (Z9ZEF5EQX5 23-379 limits assumed): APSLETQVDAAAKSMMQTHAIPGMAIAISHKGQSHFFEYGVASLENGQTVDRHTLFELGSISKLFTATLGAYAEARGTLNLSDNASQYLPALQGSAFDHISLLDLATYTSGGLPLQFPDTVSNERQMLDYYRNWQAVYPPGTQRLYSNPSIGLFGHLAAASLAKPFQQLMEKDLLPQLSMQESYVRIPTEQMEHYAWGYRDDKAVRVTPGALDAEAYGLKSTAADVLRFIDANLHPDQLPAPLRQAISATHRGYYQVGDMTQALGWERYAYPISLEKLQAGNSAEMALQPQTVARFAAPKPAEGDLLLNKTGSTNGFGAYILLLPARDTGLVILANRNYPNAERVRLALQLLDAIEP

Row | SMILES | IC50
1 | NC(=O)[C@@H]1CC[C@@H]2CN1C(=O)N2OS(=O)(=O)O [avibactam] | 0.000392 µM
2 | O=C(O)[C@H]1/C(=C/CO)O[C@@H]2CC(=O)N21 [clavulanic acid] | 23.4 µM
